Results taken from US11446342B2, “Composite probiotics and use thereof” (INFINITUS (CHINA) COMPANY LTD., priority 2019, dated 2022).

How the values were obtained:
[1] = tested on: mice having high-fat diet induced metabolic syndrome; experiment: Liver glutathione (GSH) in high-fat diet-induced metabolic syndrome; assay type: in vivo, C57BL/6J mice; details: intragastric daily, high-fat feed; probiotics total 1.0×10^9 CFU/mL
Description: (§1) The experimental animals were 48 5-week old SPF grade C57BL/6 male mice, which were purchased from Shanghai Slack Laboratory Animal Center. The high-fat feed was purchased from Nantong Trophic Animal Feed High-tech Co., Ltd. The model group was fed with TP23300 high-fat feed, and the normal control group was fed with TP23302 control feed. After the mice were adaptively feed for 7 days, the experiment started. The animals were given free access to food and water, the temperature was 22±2° C., the humidity was 55±5%, and the illumination was alternately 12 h bright and dark.
(§2) Each group contains 6 mice. The feeding environmental temperature was 20-26° C., the humidity was 40%-70% and the padding was replaced twice a week. In the Bifidobacterium adolescentis CCFM8630, Lactobacillus reuteri CCFM8631, Lactobacillus rhamnosus CCFM1044 and Lactobacillus casei CCFM711 compounding group, the ratio of viable count of Bifidobacterium adolescentis CCFM8630, Lactobacillus reuteri CCFM8631, Lactobacillus rhamnosus CCFM1044 and Lactobacillus casei CCFM711 was 1:1:1:1. Each mouse was administered intragastrically each day with probiotics with a concentration of 1.0×10^9 CFU/mL, which was resuspended in 3% sucrose solution, and the volume by intragastric administration was 0.2 mL, i.e., the total amount of probiotics administered intragastrically to each mouse was 2×10^8 CFU each day. […]

[2] = tested on: mice having high-fat diet induced metabolic syndrome; experiment: Liver superoxide dismutase (SOD) in high-fat diet-induced metabolic syndrome; assay type: in vivo, C57BL/6J mice; details: intragastric daily, high-fat feed; probiotics total 1.0×10^9 CFU/mL
Description: as §1, §2

CN(CCOc1ccc(CC2SC(=O)NC2=O)cc1)c1ccccn1 (centres unmarked) [RH, rosiglitazone]
extent of increase of liver GSH level compared with the HF group [1]: 6.88 μmoL/g prot | extent of increase of liver SOD activity compared with the HF group [2]: 70.07 U/mg prot
